# Reference: patent US8206593B2, “Microfluidic chemical reaction circuits” (Fluidigm Corporation, priority 2004, dated 2012)
# Test system: tumor-bearing mouse (M-MSV/M-MuLV rhabdomyosarcoma)
# Assay: microPET/microCT imaging of a tumor-bearing mouse injected with [18F]FDG
# Type: in vivo
# Conditions: 272 microCi via tail vein; 1-h uptake and non-specific clearance; imaged 15 minutes; FDG produced in a microfluidic chip
# From the text: Mouse Model. The tumor model used was a strongly immunogenic, non-metastasizing retrovirally-induced rhabdomyosarcoma (M-MSV/M-MuLV) (Fletcher et al., 2002, Tetrahedron 58:4735). MSV is a replication-defective, acutely transforming retrovirus carried with helper activity provided by M-MuLV, which encodes the gag, pol, and env components that are necessary for cell infection and replication (Worz et al., 2001, Chemical Engineering Science 56:1029). Rhabdomyosarcomas develop at the intramuscular inoculation site after a short latency period (7-10 days) and regress over a period of 4-5 wk following the induction of a strong immune reaction in immunocompetent adult mice. These lesions were characterized by a mixture of virus-infected myocytes and a large infiltrate of lymphocytes, granulocytes, and macrophages. Both cellular and humoral immune responses induced are dependent on presentation by H-2 D^b alleles (Watts et al., 2003, Current Opinion in Chemical Biology 7:380). Rejection was mediated by CD8+ cytolytic T cells, which recognize peptides from the gag and env proteins of M-MuLV, and requires help from CD4+ T cells (Kobayashi et al., 2004, Science 304:1305; Chan et al., 2003, Nano Letters 3:199; Kawaguchi et al., 2005, Angewandte Chemie-International Edition 44:2413)
# Mouse imaging. The tumor bearing mouse was injected with 272 microCi of FDG via tail vein. […]
substance,measurement,value
2-deoxy-2-[^18F]fluoro-D-glucose [[^18F]FDG],Organs visible in microPET/microCT image,"bladder, kidneys, heart, tumor and two lymph nodes"
